# Patent publication US12612416B2, “Modulators of cystic fibrosis transmembrane conductance regulator” (VERTEX PHARMACEUTICALS INCORPORATED, priority 2020, dated 2026)
# Molecular target: CFTR (Homo sapiens, UniProt P13569)
# Experiment: standard Ussing Chamber Assay for CFTR potentiator activity
# Assay type: cell-based
# Description: tert-Butyl N-[(6R,12R)-6-benzyloxy-12-methyl-6,15-bis(trifluoromethyl)-13,19-dioxa-3,4,18-triazatricyclo[12.3.1.12,5]nonadeca-1(18),2,4,14,16-pentaen-17-yl]-N-tert-butoxycarbonyl-carbamate (8.6 g, 11.77 mmol) was dissolved in ethanol (172 mL) then the flask was cycled 3 times between vacuum/nitrogen. Treated the mixture with 10% Pd/C (50% water wet, 1.8 g of 5% w/w, 0.8457 mmol) then cycled 3 times between vacuum/nitrogen and 3 times between vacuum/hydrogen and then stirred vigorously under hydrogen (balloon) at room temperature for 18 hours. The mixture was cycled 3 times between vacuum/nitrogen, filtered over Celite, washing with ethanol, and then the filtrate was evaporated to give 7.3 g of tert-butyl N-tert-butoxycarbonyl-N-[(6R,12R)-6-hydroxy-12-methyl-6,15-bis(trifluoromethyl)-13,19-dioxa-3,4,18-triazatricyclo[12.3.1.12,5]nonadeca-1(18),2,4,14,16-pentaen-17-yl]carbamate an off-white solid. 1H NMR and MS confirmed the expected product. CFTR modulating activity was confirmed using a standard Ussing Chamber Assay for CFTR potentiator activity.
# CFTR, sequence (P13569 whole entry, species assumed): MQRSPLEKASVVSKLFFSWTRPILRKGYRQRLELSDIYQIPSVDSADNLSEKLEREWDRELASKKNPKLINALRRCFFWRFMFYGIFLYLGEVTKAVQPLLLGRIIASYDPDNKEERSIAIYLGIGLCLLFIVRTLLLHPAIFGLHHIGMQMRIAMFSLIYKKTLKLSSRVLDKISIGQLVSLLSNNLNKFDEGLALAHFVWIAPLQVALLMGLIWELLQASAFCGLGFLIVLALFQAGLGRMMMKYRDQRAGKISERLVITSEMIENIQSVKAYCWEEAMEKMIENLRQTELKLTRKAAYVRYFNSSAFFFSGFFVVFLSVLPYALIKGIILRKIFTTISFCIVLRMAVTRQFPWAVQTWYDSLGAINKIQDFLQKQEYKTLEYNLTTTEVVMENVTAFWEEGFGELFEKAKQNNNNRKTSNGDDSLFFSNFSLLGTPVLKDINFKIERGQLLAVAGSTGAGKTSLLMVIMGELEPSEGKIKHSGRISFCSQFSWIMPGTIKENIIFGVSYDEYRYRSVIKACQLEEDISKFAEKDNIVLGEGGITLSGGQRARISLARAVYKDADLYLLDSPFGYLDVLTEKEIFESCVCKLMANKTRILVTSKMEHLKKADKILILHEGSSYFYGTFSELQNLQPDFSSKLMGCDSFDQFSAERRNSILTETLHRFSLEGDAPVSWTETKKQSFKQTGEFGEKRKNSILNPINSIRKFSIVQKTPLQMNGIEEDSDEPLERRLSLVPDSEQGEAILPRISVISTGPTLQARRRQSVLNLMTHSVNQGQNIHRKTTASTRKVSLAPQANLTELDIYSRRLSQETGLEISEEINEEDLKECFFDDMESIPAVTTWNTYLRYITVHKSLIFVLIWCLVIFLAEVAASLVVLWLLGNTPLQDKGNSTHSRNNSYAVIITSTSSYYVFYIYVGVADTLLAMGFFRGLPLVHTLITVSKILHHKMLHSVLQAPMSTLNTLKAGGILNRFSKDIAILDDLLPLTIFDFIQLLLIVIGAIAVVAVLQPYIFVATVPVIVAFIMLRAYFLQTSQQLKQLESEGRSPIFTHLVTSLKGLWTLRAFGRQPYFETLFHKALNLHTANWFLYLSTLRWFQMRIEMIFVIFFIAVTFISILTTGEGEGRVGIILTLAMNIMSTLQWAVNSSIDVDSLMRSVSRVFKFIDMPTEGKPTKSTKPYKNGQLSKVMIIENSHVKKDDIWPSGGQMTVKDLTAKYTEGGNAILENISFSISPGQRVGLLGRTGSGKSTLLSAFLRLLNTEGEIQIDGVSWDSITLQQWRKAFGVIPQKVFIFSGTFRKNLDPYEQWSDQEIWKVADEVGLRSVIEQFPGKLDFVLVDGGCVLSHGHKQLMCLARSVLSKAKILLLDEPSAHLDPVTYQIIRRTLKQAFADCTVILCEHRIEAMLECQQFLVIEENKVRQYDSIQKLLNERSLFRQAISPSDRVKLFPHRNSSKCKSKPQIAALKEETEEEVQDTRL
structure (smiles),measurement,value
"C[C@@H]1CCCCC[C@](O)(C(F)(F)F)C2=NN=C(O2)c2nc(c(C(F)(F)F)cc2N)O1 [(6R,12R)-17-amino-12-methyl-6,15-bis(trifluoromethyl)-13,19-dioxa-3,4,18-triazatricyclo[12.3.1.12,5]nonadeca-1(18),2,4,14,16-pentaen-6-ol]",CFTR modulating activity (CFTR potentiator activity),confirmed
